Experimental data taken from patent publication US20230111925A1, “FIBROTIC DISEASE MECHANISM AND THERAPEUTIC DRUG THEREFOR” (GUANGZHOU WOMEN AND CHILDREN'S MEDICAL CENTER, priority 2020, published 2023).
Structures can show the parent of a compound that is named as a salt.

How the values were obtained:
[1] = test system: DSS-induced mouse colitis; test: DSS-induced mouse colitis
[2] = test system: normal intestinal fibroblast CCD-18Co; test: Proliferation and apoptosis of normal intestinal fibroblast CCD-18Co; assay type: cell-based
[3] = test system: lung epithelial cells A549 infected with SEV; test: IFN-β induction in SeV-infected lung epithelial cells A549; assay type: cell-based; settings: vs DMSO
Description: Total RNA was extracted from cells, and the mRNA level of IFN-β was detected by fluorescence quantitative PCR. The level of IFN-β in the supernatants was detected by ELISA. […] The cells were collected and total RNA was collected from the cells, and the mRNA level of IFN-β was detected by fluorescence quantitative PCR.

RNA virus VSV = assay type: in vivo, mice; settings: Dipyridamole 30 mg/kg i.p. from day -3; VSV 10^8 PFU/g tail vein day 0 and day 4
[4] = test system: CCD-18Co cells stimulated by TGF-β and TNF-α; test: Intestinal interstitial fibrosis model in CCD-18Co cell line (Western blot); assay type: cell-based; settings: 0.5 μM ITI-214 added one hour in advance; TGF-β 10 ng/ml and TNF-α 40 ng/ml, 48 hours
[5] = 10 mg/kg i.p. twice a day days 4-15, 2% DSS days 0-10
[6] = 10 mg/kg i.p. twice a day days 4-15, 2% DSS days 0-10, vs model group
[7] = A549, SEV MOI=1, 0, 16 and 24 hours
[8] = ITI214 3 mg/kg i.p. twice a day days 4-8, 2% DSS days 0-7
[9] = Mardepodect hydrochloride 1 mg/kg i.p. twice a day days 4-7, vs model group
[10] = PF-04447943 3 mg/kg i.p. twice a day days 4-12, vs model group
[11] = PF-05085727 3 mg/kg i.p. twice a day days 4-9
[12] = PF-05085727 3 mg/kg i.p. twice a day days 4-9, vs model group
[13] = Roflumilast 3 mg/kg i.p. twice a day days 4-9, vs model group
[14] = 5 mg/kg i.p. twice a day days 4-15, 2% DSS days 0-10, vs model group
[15] = Icariin 50 mg/kg i.p. twice a day days 4-7, vs model group

O=C1CCc2cc(OCCCCc3nnnn3C3CCCCC3)ccc2N1 [Cilostazol]
weight changes [1, 5]: did not decrease significantly
colonic tissue structure, epithelial structure (H&E) [1, 6]: significantly restore
fibrosis (colon H&E) [1, 6]: reduced
infiltration of inflammatory cells (colon H&E) [1, 6]: decreased

OCCN(CCO)c1nc(N2CCCCC2)c2nc(N(CCO)CCO)nc(N3CCCCC3)c2n1 [Dipyridamole]
apoptosis of fibroblasts (flow early/late apoptosis analysis) ([2]; 20 μM DIP, 48 hours): promoted
proliferation of fibroblasts (crystal violet staining) ([2]; 20 μM DIP, 48 hours): inhibited
mRNA level of the type I interferon IFN-β (fluorescence quantitative PCR) ([3]; A549, PDE inhibitor 5 μM, SEV MOI=1, 24 hours): significantly up-regulate
mRNA level of IFN-β (fluorescence quantitative PCR) [3, 7]: significantly promoted
protein level of IFN-β in the supernatants (ELISA) [3, 7]: significantly promoted
infiltration of pulmonary inflammation in lung and alveolar injury (H&E staining of mouse lung) (RNA virus VSV): significantly reduced

CN1C(=O)c2c(nn(Cc3ccc(-c4cccc(F)n4)cc3)c2Nc2ccccc2)N2C1=N[C@@H]1CCC[C@@H]12.O=P(O)(O)O [ITI214]
apoptosis of fibroblasts (flow early/late apoptosis analysis) ([2]; 0.5 μM ITI-214, 48 hours): promoted
proliferation of fibroblasts ([2]; 0.5 μM ITI-214, 48 hours): effectively inhibit
protein expression levels of α-SMA, COL1A2 and FAP in cells (Western blot) [4]: inhibited
colon length [1, 8]: significantly improved
disease activity index score (DAI score), severity of colitis [1, 8]: significantly reduced
fibrosis (colon H&E) [1, 8]: inhibits
infiltration of inflammatory cells (colon H&E) [1, 8]: reduces
structures of colon epithelium and lamina propria (H&E) [1, 8]: significantly restored
weight changes of mice ([1]; ITI214 3 mg/kg i.p. twice a day days 4-8, 2% DSS days 0-7, day 7): significantly increased
survival rate ([1]; ITI214 3 mg/kg i.p. twice a day days 4-8, 2% DSS days 0-7, model group 50%): 80%

Cn1cc(-c2ccncc2)c(-c2ccc(OCc3ccc4ccccc4n3)cc2)n1 [Mardepodect hydrochloride]
weight changes ([1]; Mardepodect hydrochloride 1 mg/kg i.p. twice a day days 4-7, 2% DSS days 0-7): did not decrease the weight significantly
colonic tissue structure, epithelial structure (H&E) [1, 9]: significantly restore
fibrosis (colon H&E) [1, 9]: reduced
infiltration of inflammatory cells (colon H&E) [1, 9]: decreased

Cc1[nH]c(=O)c(C#N)cc1-c1ccncc1 [Milirinone]
weight changes [1, 5]: did not decrease significantly
colonic tissue structure, epithelial structure (H&E) [1, 6]: significantly restore
fibrosis (colon H&E) [1, 6]: reduced
infiltration of inflammatory cells (colon H&E) [1, 6]: decreased

C[C@@H]1CN(Cc2ncccn2)C[C@H]1c1nc2c(cnn2C2CCOCC2)c(=O)[nH]1 [PF-04447943]
colon length ([1]; PF-04447943 3 mg/kg i.p. twice a day days 4-12): significantly improve
weight loss ([1]; PF-04447943 3 mg/kg i.p. twice a day days 4-12, 2% DSS days 0-10, from day 6): significantly inhibited
survival rate ([1]; PF-04447943 3 mg/kg i.p. twice a day days 4-12, 2% DSS days 0-10, model group 40%): 100%
disease activity index score, experimental colitis ([1]; PF-04447943 3 mg/kg i.p. twice a day days 4-12, from day 6): significantly inhibited
colonic tissue structure, epithelial structure (H&E) [1, 10]: significantly restore
fibrosis (colon H&E) [1, 10]: reduced
infiltration of inflammatory cells (colon H&E) [1, 10]: decreased

Cn1ncc(-c2nn(C)c3ncnc(N4CCC4)c23)c1-c1ccc(C(F)(F)F)cc1 [PF-05085727]
colon length [1, 11]: significantly improved
disease activity index score, activity degree of the disease [1, 11]: did not aggravate
weight changes ([1]; PF-05085727 3 mg/kg i.p. twice a day days 4-9, 2% DSS days 0-7): did not decrease significantly
survival rate ([1]; PF-05085727 3 mg/kg i.p. twice a day days 4-9, 2% DSS days 0-7, model group 40%): 100%
colonic tissue structure, epithelial structure (H&E) [1, 12]: significantly restored
fibrosis (colon H&E) [1, 12]: reduced
inflammatory cells (colon H&E) [1, 12]: reduced

O=C(Nc1c(Cl)cncc1Cl)c1ccc(OC(F)F)c(OCC2CC2)c1 [Roflumilast]
weight changes ([1]; Roflumilast 3 mg/kg i.p. twice a day days 4-9, 2% DSS days 0-7): did not decrease significantly
colonic tissue structure, epithelial structure (H&E) [1, 13]: significantly restore
fibrosis (colon H&E) [1, 13]: reduced
infiltration of inflammatory cells (colon H&E) [1, 13]: decreased

COc1ccc(C(=O)N2CCN(c3ccc4c(c3)CCC(=O)N4)CC2)cc1OC [Vesnarinone]
weight changes ([1]; 5 mg/kg i.p. twice a day days 4-15, 2% DSS days 0-10): did not decrease significantly
colonic tissue structure, epithelial structure (H&E) [1, 14]: significantly restore
fibrosis (colon H&E) [1, 14]: reduced
infiltration of inflammatory cells (colon H&E) [1, 14]: decreased

Icariin
weight loss of colitis ([1]; Icariin 50 mg/kg i.p. twice a day days 4-7, 2% DSS days 0-7, from day 6): significantly inhibited
colonic tissue structure, epithelial structure (H&E) [1, 15]: significantly restore
fibrosis (colon H&E) [1, 15]: reduced
infiltration of inflammatory cells (colon H&E) [1, 15]: decreased
